In patent publication US9434734B2, “Substituted pyrazoloquinazolinones and pyrroloquinazolinones as allosteric modulators of group II metabotropic glutamate receptors” (Domain Therapeutics, priority 2012, dated 2016) one finds melting point and IC50 data, which are given here for 29 compounds.

SMILES strings stand for the structures. Some results are limits rather than exact numbers.

In data set [1] the target is T1, human mGluR2 (hmGluR2) transiently over-expressed in HEK-293 cells (Homo sapiens, UniProt Q14416).
T1 construct: expressed in transfected cells; host or cells: HEK-293 cells, transient co-transfection by electroporation
T1 sequence (Q14416 19-872): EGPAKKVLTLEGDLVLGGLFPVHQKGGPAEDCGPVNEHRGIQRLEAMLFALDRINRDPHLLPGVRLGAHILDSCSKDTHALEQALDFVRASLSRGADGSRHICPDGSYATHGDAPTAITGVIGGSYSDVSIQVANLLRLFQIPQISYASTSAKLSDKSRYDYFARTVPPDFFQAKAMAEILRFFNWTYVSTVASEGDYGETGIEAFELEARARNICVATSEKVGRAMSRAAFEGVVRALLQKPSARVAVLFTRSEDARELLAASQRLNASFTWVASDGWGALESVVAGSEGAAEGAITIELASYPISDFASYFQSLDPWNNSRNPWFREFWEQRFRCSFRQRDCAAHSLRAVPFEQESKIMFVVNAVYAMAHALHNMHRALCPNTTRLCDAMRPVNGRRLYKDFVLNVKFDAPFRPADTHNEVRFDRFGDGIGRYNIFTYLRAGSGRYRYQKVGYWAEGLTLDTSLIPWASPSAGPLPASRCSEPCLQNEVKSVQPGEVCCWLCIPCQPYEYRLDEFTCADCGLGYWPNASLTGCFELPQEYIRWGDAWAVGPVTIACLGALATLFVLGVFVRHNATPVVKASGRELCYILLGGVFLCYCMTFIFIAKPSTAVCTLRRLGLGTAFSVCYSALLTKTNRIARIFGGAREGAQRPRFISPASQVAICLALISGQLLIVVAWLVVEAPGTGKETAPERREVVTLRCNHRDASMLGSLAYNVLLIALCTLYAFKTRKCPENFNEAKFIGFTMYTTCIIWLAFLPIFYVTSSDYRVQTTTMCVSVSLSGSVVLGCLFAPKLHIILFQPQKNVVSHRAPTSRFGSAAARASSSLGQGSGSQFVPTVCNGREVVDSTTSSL
The experiment in a line: Human mGluR2 negative allosteric modulator evaluation using Ca++ functional assay (agonist and NAM activity). The data set is classed as cell-based. The settings on record: hmGluR2 in HEK-293 cells, EC80 glutamate, Fluo4AM calcium readout; read-out: mGluR2 negative allosteric modulator activity IC50. As for the experimental part:
Human mGluR2 Negative Allosteric Modulator Evaluation Using Ca^++ Functional Assay
Compounds of the present invention were tested successively for their agonist and negative allosteric modulator activities on human mGluR2 (hmGluR2) transiently over-expressed in HEK-293 cells. They exert agonist activity if they are able to activate mGluR2 by themselves, i.e., in absence of the endogenous agonist glutamate; and they exert negative allosteric modulator activity if they decrease the action of the endogenous agonist glutamate.
HEK-293 cells were maintained in Modified Eagle's Medium supplemented with 10% Foetal Calf Serum, 1% Penicillin/Streptomycin and 1% nonessential amino acids at 37° C./5% CO2.
Cells were plated after transfection onto polyornithine coated, clear bottom, black-walled, 96-well plates and cultured for 24 h.
Receptor activity was detected by changes in intracellular calcium measured using the fluorescent Ca^2+ sensitive dye, Fluo4AM (Molecular Probes).
The day of the assay, medium was aspirated and replaced during 3 hours by medium without serum supplemented with 1% Glutamax, 1% Penicillin/Streptomycin and 1% nonessential amino acids. Then, cells were washed with freshly prepared buffer B (HBSS 1× (PAA), Hepes 20 mM, MgSO4-7H2O 1 mM, Na2CO3 3.3 mM, CaCl2-2H2O 1.3 mM, 0.5% BSA, Probenecid 2.5 mM) and loaded at 37° C./5% CO2 for 1.5 hours with buffer B containing 1 μM Fluo4AM, 0.1 mg/mL Pluronic Acid, 7 μg/mL Glutamate Pyruvate Transaminase and 2 mM sodium pyruvate. Afterwards cells were washed twice with buffer B and 50 μL of this buffer were added to each well.
Agonist and negative allosteric modulator activities of compounds were consecutively evaluated on the same cells plate. […] Then, the cells were stimulated by an EC80 glutamate concentration and fluorescence was recorded for additional 60 s. EC80 glutamate concentration is the concentration giving 80% of the maximal glutamate response. Agonist and/or negative allosteric modulator activity(ies) were evaluated in comparison to basal signal or signal evoked by EC80 glutamate alone, respectively.
For potency determination, a dose-response test was performed using 8 concentrations of each compound of the invention. Dose-response curves were fitted using the sigmoidal dose-response (variable slope) analysis in GraphPad Prism program (Graph Pad Inc) and EC50 of agonist/IC50 of negative allosteric modulator activity was calculated. Dose-response experiments were all performed in duplicate, two times independently.

The melting point is the temperature, or range, at which the solid turns liquid. The term IC50 denotes the concentration that inhibits the measured activity by half. As to `Cn1c(=O)c2ccc(-c3ccc(N)cc3)cc2n2nc(-c3ccccc3)cc12` [Example 3, 8-(4-Amino-phenyl)-4-methyl-2-phenyl-4H-pyrazolo[1,5-a]quinazolin-5-one], the melting point was in the range of 173 to 175 °C. The IC50 in data set [1] is below 1000 nM.

For the compound `Cn1c(=O)c2ccc(-c3cn[nH]c3)cc2n2nc(-c3ccccc3)cc12` [Example 6, 4-Methyl-2-phenyl-8-(1H-pyrazol-4-yl)-4H-pyrazolo[1,5-a]quinazolin-5-one], the melting point is above 250 °C. Further, in data set [1], the IC50 was below 1000 nM.

With `Cn1c(=O)c2ccc(-c3ccc4nccn4c3)cc2n2nc(-c3ccccc3)cc12` [Example 8, 8-Imidazo[1,2-a]pyridin-6-yl-4-methyl-2-phenyl-4H-pyrazolo[1,5-a]quinazolin-5-one], the melting point is above 250 °C. Further, in data set [1], the IC50 was below 1000 nM.

`Cn1c(=O)c2ccc(-c3ccc(S(N)(=O)=O)cc3)cc2n2nc(-c3ccccc3)cc12` [Example 10, 4-(4-Methyl-5-oxo-2-phenyl-4,5-dihydro-pyrazolo[1,5-a]quinazolin-8-yl)-benzenesulfonamide]: the melting point was above 250 °C. For the same compound, the IC50 in data set [1] was below 1000 nM.

Turning to `CC(=O)c1cccc(-c2ccc3c(=O)n(C)c4cc(-c5ccccc5)nn4c3c2)c1` [Example 14, 8-(3-Acetyl-phenyl)-4-methyl-2-phenyl-4H-pyrazolo[1,5-a]quinazolin-5-one], the melting point fell in the range of 207 to 209 °C. In addition, in data set [1], the IC50 was below 1000 nM.

Turning to `Cc1n[nH]c(C)c1-c1ccc2c(=O)n(C)c3cc(-c4ccccc4)nn3c2c1` [Example 15, 8-(3,5-Dimethyl-1H-pyrazol-4-yl)-4-methyl-2-phenyl-4H-pyrazolo[1,5-a]quinazolin-5-one], the melting point was above 250 °C. The IC50 in data set [1] was below 1000 nM.

As to `Cn1cc(-c2ccc3c(=O)n(C)c4cc(-c5ccccc5)nn4c3c2)cn1` [Example 16, 4-Methyl-8-(1-methyl-1H-pyrazol-4-yl)-2-phenyl-4H-pyrazolo[1,5-a]quinazolin-5-one], the melting point is above 250 °C. Besides, the IC50 in data set [1] was below 1000 nM.

As for `Cn1c(=O)c2ccc(-c3cc[nH]n3)cc2n2nc(-c3ccccc3)cc12` [Example 17, 4-Methyl-2-phenyl-8-(1H-pyrazol-3-yl)-4H-pyrazolo[1,5-a]quinazolin-5-one], the melting point lay in the range of 245 to 249 °C. The IC50 in data set [1] is below 1000 nM.

In turn, `Cc1n[nH]cc1-c1ccc2c(=O)n(C)c3cc(-c4ccccc4)nn3c2c1` [Example 18, 4-Methyl-8-(3-methyl-1H-pyrazol-4-yl)-2-phenyl-4H-pyrazolo[1,5-a]quinazolin-5-one] yielded a melting point of 174 to 176 °C. Moreover, the IC50 in data set [1] was below 1000 nM.

As to `Cn1c(=O)c2ccc(-c3c[nH]nc3C(F)(F)F)cc2n2nc(-c3ccccc3)cc12` [Example 19, 4-Methyl-2-phenyl-8-(3-trifluoromethyl-1H-pyrazol-4-yl)-4H-pyrazolo[1,5-a]quinazolin-5-one], the melting point is above 250 °C. For the same compound, the IC50 in data set [1] was below 1000 nM.

Regarding `Cn1c(=O)c2ccc(-c3ccc(N)nc3)cc2n2nc(C(C)(C)C)cc12` [Example 52, 8-(6-Amino-pyridin-3-yl)-2-tert-butyl-4-methyl-4H-pyrazolo[1,5-a]quinazolin-5-one], the IC50 in data set [1] is below 1000 nM.

Take `Cl.[2H]C([2H])([2H])n1c(=O)c2ccc(-c3ccc(N)nc3)cc2n2nc(CCOC)cc12` [Example 55, 8-(6-Amino-pyridin-3-yl)-2-(2-methoxy-ethyl)-4-methyl(D3)-4H-pyrazolo[1,5-a]quinazolin-5-one]: the IC50 in data set [1] was below 1000 nM.

For the compound `Cl.[2H]C([2H])([2H])n1c(=O)c2ccc(-c3ccc(N)nc3)cc2n2nc(C3CCCC3)cc12` [Example 67, 8-(6-Amino-pyridin-3-yl)-2-cyclopentyl-4-methyl(D3)-4H-pyrazolo[1,5-a]quinazolin-5-one], the IC50 in data set [1] was below 1000 nM.

Take `Cl.[2H]C([2H])([2H])n1c(=O)c2ccc(-c3cc(C)nc(C)c3)cc2n2nc(C3CCCC3)cc12` [Example 68, 2-Cyclopentyl-8-(2,6-dimethyl-pyridin-4-yl)-4-methyl(D3)-4H-pyrazolo[1,5-a]quinazolin-5-one]: the IC50 in data set [1] was below 1000 nM.

For the compound `Cn1c(=O)c2ccc(-c3ccc(N)nc3)cc2n2nc(C3CCCCCC3)cc12` [Example 76, 8-(6-Amino-pyridin-3-yl)-2-cycloheptyl-4-methyl-4H-pyrazolo[1,5-a]quinazolin-5-one], in data set [1], the IC50 is below 1000 nM.

With `CCn1c(=O)c2ccc(-c3cc(C)nc(C)c3)cc2n2nc(C3CCCCCC3)cc12` [Example 78, 2-Cycloheptyl-8-(2,6-dimethyl-pyridin-4-yl)-4-ethyl-4H-pyrazolo[1,5-a]quinazolin-5-one], in data set [1], the IC50 was below 1000 nM.

Consider `Cc1cc(-c2ccc3c(=O)n(C)c4cc(C5CCOCC5)nn4c3c2)ccn1` [Example 93, 4-Methyl-8-(2-methyl-pyridin-4-yl)-2-(tetrahydro-pyran-4-yl)-4H-pyrazolo[1,5-a]quinazolin-5-one], for which the IC50 in data set [1] is below 1000 nM.

As to `Cc1ccc(-c2ccc3c(=O)n(C)c4cc(C5CCOCC5)nn4c3c2)cn1` [Example 95, 4-Methyl-8-(6-methyl-pyridin-3-yl)-2-(tetrahydro-pyran-4-yl)-4H-pyrazolo[1,5-a]quinazolin-5-one], the IC50 in data set [1] was below 1000 nM.

Consider `Cn1c(=O)c2ccc(-c3cccc(S(N)(=O)=O)c3)cc2n2nc(C3CCOCC3)cc12` [Example 100, 3-[4-Methyl-5-oxo-2-(tetrahydro-pyran-4-yl)-4,5-dihydro-pyrazolo[1,5-a]quinazolin-8-yl]-benzenesulfonamide], for which, in data set [1], the IC50 is below 1000 nM.

Turning to `Cc1cc(-c2ccc3c(=O)n(C)c4cc(C5CCCO5)nn4c3c2)cc(C)n1` (stereo not drawn) [Example 107, 8-(2,6-Dimethyl-pyridin-4-yl)-4-methyl-2-(tetrahydro-furan-2-yl)-4H-pyrazolo[1,5-a]quinazolin-5-one], the IC50 in data set [1] was below 1000 nM.

For the compound `Cc1cc(-c2cc3n(C)c(=O)c4ccc(-c5ccc(N)nc5)cc4n3n2)cc(C)n1` [Example 112, 8-(6-Amino-pyridin-3-yl)-2-(2,6-dimethyl-pyridin-4-yl)-4-methyl-4H-pyrazolo[1,5-a]quinazolin-5-one], the IC50 in data set [1] is below 1000 nM.

Turning to `Cc1cc(-c2cc3n(C)c(=O)c4ccc(-c5cccnc5C)cc4n3n2)cc(C)n1` [Example 113, 2-(2,6-Dimethyl-pyridin-4-yl)-4-methyl-8-(2-methyl-pyridin-3-yl)-4H-pyrazolo[1,5-a]quinazolin-5-one], in data set [1], the IC50 was below 1000 nM.

In the case of `Cc1cc(-c2ccc3c(=O)n(C)c4cc(-c5cc(C)nc(C)c5)nn4c3c2)cc(C)n1` [Example 114, 2,8-Bis-(2,6-dimethyl-pyridin-4-yl)-4-methyl-4H-pyrazolo[1,5-a]quinazolin-5-one], the IC50 in data set [1] was below 1000 nM.

On to `Cc1cc(-c2cc3n(C)c(=O)c4ccc(-c5cccnc5)cc4n3n2)cc(C)n1` [Example 116, 2-(2,6-Dimethyl-pyridin-4-yl)-4-methyl-8-pyridin-3-yl-4H-pyrazolo[1,5-a]quinazolin-5-one], for which the IC50 in data set [1] is below 1000 nM.

Regarding `Cc1ccc(-c2ccc3c(=O)n(C)c4cc(-c5cc(C)nc(C)c5)nn4c3c2)cn1` [Example 117, 2-(2,6-Dimethyl-pyridin-4-yl)-4-methyl-8-(6-methyl-pyridin-3-yl)-4H-pyrazolo[1,5-a]quinazolin-5-one], the IC50 in data set [1] is below 1000 nM.

As for `Cc1cncc(-c2ccc3c(=O)n(C)c4cc(-c5cc(C)nc(C)c5)nn4c3c2)c1` [Example 118, 2-(2,6-Dimethyl-pyridin-4-yl)-4-methyl-8-(5-methyl-pyridin-3-yl)-4H-pyrazolo[1,5-a]quinazolin-5-one], the IC50 in data set [1] was below 1000 nM.

As to `Cc1cc(-c2cc3n(C)c(=O)c4ccc(-c5cnccc5C)cc4n3n2)cc(C)n1` [Example 119, 2-(2,6-Dimethyl-pyridin-4-yl)-4-methyl-8-(4-methyl-pyridin-3-yl)-4H-pyrazolo[1,5-a]quinazolin-5-one], the IC50 in data set [1] is below 1000 nM.

With `Cc1cc(-c2cc3n(C)c(=O)c4ccc(-c5cccnc5C)cc4n3n2)ccn1` [Example 132, 2-(2-methyl-pyridin-4-yl)-4-methyl-8-(2-methyl-pyridin-3-yl)-4H-pyrazolo[1,5-a]quinazolin-5-one], the IC50 in data set [1] is below 1000 nM.

Turning to `Cc1cc(-c2cc3n(C)c(=O)c4ccc(-c5cc(C)nc(C)c5)cc4n3n2)ccn1` [Example 133, 8-(2,6-Dimethyl-pyridin-4-yl)-4-methyl-2-(2-methyl-pyridin-4-yl)-4H-pyrazolo[1,5-a]quinazolin-5-one], the 50% inhibitory concentration (IC50) in data set [1] is below 1000 nM.
